{"source": "patent US20150366836A1", "about": "“METHOD AND PHARMACEUTICAL COMPOSITION FOR TREATING COLORECTAL CANCER” (National Dong Hua University, priority 2014, published 2015)", "type_in_all_cases": "cell-based", "key": {"[1]": {"system": "Caco2 cells", "assay": "MTT assay cell viability, Caco2 cells", "procedure": "(§1) Two cell lines were used in this study, Caco2 cells and HT-29 cells. Both of them are colorectal cancer cells. Caco2 cells and HT-29 cells were maintained in DMEM (or RPMI) supplemented with 20% or 10% fetal bovine serum (FBS; GIBCO), pH 7.4 at 37° C. with continuous circulation of 5% CO2 incubator. The medium was changed every 2 days and the cells were trypsinized using trypsin/EDTA when reaching 80%-90% confluence.\n(§2) In this example, the effects of HCD, PG, and 5-FU on the viability of Caco2 cells and HT-29 cells were examined. The MTT assay was employed for this purpose. The MTT (3-(4-,5-dimethylthiazol-2-yl)-2,5-diphenyltetrazolium bromide) assay is a common colorimetric method in the field for cell viability analysis. MTT (yellow tetrazolium salt) is reduced to a purple formazan by living cells and detection to the purple formazan can be calculated as the cell viability.\n(§3) Briefly, cells (Caco2 or HT-29) were seeded in 96-well plate (7×10^3 cell per well) and incubated overnight (37° C., 5% CO2).\n(§4) On the other hand, in the pretreatment analysis, cells (Caco2 or HT-29) were seeded in 96-well plate (7×10^3 cell per well) and incubated overnight (37° C., 5% CO2). In according to the treatments listed in the Table 1, Cells were pre-treated by HCD or PG for 6, 12, 24, 36, or 48 hr and then were treated by 5-FU for additional 24 hr."}, "[2]": {"system": "HT-29 cells", "assay": "MTT assay cell viability, HT-29 cells", "procedure": "as §1, §2, §3, §4"}, "[3]": {"system": "Caco2 cells", "assay": "Cell cycle analysis by flow cytometer (PI staining), Caco2 cells", "procedure": "(§5) The results of Example 2 in cell viability hinted the effects of HCD, PG, and 5-FU on arresting cell cycle. In this example, the phase of cell cycle of Caco2 and HT-29 cells after the treatment listed in Table 1 was determined by flow cytometer. Briefly, 7×10^4 cells per well were inoculated in 12-wells plate and incubated overnight at 37° C., 5% CO2. Then, cells were treated according to the treatment listed in Table 1 by indicated time period. After treatment, cells were harvested by trypsin and fixed with 70% ethanol at −20° C. for at least 3 hr. The cells were washed in cold PBS twice and then incubated with 1 mL (v/v) staining solution (20 μg/mL propidium iodide (PI), 0.1% Triton X-100, 0.2 mg/mL Rnase) at 37° C. for 30 minutes. Lastly, cells were analyzed by flow cytometer (Cytomics™ FC500, Backman, Fullerton, Calif., USA). Data from 10,000 cells were collected for each experimental group."}, "[4]": {"system": "HT-29 cells", "assay": "Cell cycle analysis by flow cytometer (PI staining), HT-29 cells", "procedure": "as §5"}}, "data": [{"molecule": "CCCCCC1=C/C(=C/c2[nH]c(-c3ccc[nH]3)cc2OC)N=C1C", "note": "[PG, Prodigiosin]", "values": [{"measurement": "effect of pre-treating on efficacy of 5-FU in the subsequent treatment (MTT)", "setting": "[1]; Caco2, pre-treatment 6-48 hr, then 5-FU 2 μM 24 hr", "value": "significantly enhanced the efficacy of 5-FU"}, {"measurement": "IC50", "setting": "[1]; Homo sapiens, Caco-2, Caco2 cells, 48 hr treatment", "value": 2000, "unit": "nM"}, {"measurement": "effect of pre-treating on efficacy of 5-FU in the subsequent treatment (MTT)", "setting": "[2]; HT-29, pre-treatment 6-48 hr, then 5-FU 2 μM 24 hr", "value": "significantly enhanced the efficacy of 5-FU"}, {"measurement": "IC50", "setting": "[2]; Homo sapiens, HT-29 cells, 36 hr treatment", "value": 500, "unit": "nM"}, {"measurement": "G0/G1 (%)", "setting": "[3]; Caco2, 0.5 μM, 36 hr", "value": "51.3 ± 3.8", "unit": "%"}, {"measurement": "G2/M (%)", "setting": "[3]; Caco2, 0.5 μM, 36 hr", "value": "14.93 ± 4.27", "unit": "%"}, {"measurement": "S (%)", "setting": "[3]; Caco2, 0.5 μM, 36 hr", "value": "12.97 ± 0.49", "unit": "%"}, {"measurement": "Sub G1 (%)", "setting": "[3]; Caco2, 0.5 μM, 36 hr", "value": "18.67 ± 2.06", "unit": "%"}, {"measurement": "G0/G1 (%)", "setting": "[3]; Caco2, 0.5 μM, 48 hr", "value": "53.43 ± 13.12", "unit": "%"}, {"measurement": "G2/M (%)", "setting": "[3]; Caco2, 0.5 μM, 48 hr", "value": "15.9 ± 8.23", "unit": "%"}, {"measurement": "S (%)", "setting": "[3]; Caco2, 0.5 μM, 48 hr", "value": "18.17 ± 7.05", "unit": "%"}, {"measurement": "Sub G1 (%)", "setting": "[3]; Caco2, 0.5 μM, 48 hr", "value": "11.67 ± 4.07", "unit": "%"}, {"measurement": "G0/G1 (%)", "setting": "[3]; Caco2, 2 μM, 36 hr", "value": "44.53 ± 7.05", "unit": "%"}, {"measurement": "G2/M (%)", "setting": "[3]; Caco2, 2 μM, 36 hr", "value": "17.33 ± 1.95", "unit": "%"}, {"measurement": "S (%)", "setting": "[3]; Caco2, 2 μM, 36 hr", "value": "14.33 ± 1.76", "unit": "%"}, {"measurement": "Sub G1 (%)", "setting": "[3]; Caco2, 2 μM, 36 hr", "value": "21.47 ± 3.41", "unit": "%"}, {"measurement": "G0/G1 (%)", "setting": "[3]; Caco2, 2 μM, 48 hr", "value": "49.87 ± 9.56", "unit": "%"}, {"measurement": "G2/M (%)", "setting": "[3]; Caco2, 2 μM, 48 hr", "value": "12.43 ± 4.48", "unit": "%"}, {"measurement": "S (%)", "setting": "[3]; Caco2, 2 μM, 48 hr", "value": "15 ± 6.14", "unit": "%"}, {"measurement": "Sub G1 (%)", "setting": "[3]; Caco2, 2 μM, 48 hr", "value": "18.77 ± 7.49", "unit": "%"}, {"measurement": "G0/G1 (%)", "setting": "[3]; Caco2, 5 μM, 36 hr", "value": "37.9 ± 6.04", "unit": "%"}, {"measurement": "G2/M (%)", "setting": "[3]; Caco2, 5 μM, 36 hr", "value": "15.43 ± 7.86", "unit": "%"}, {"measurement": "S (%)", "setting": "[3]; Caco2, 5 μM, 36 hr", "value": "14.23 ± 3.12", "unit": "%"}, {"measurement": "Sub G1 (%)", "setting": "[3]; Caco2, 5 μM, 36 hr", "value": "30.07 ± 6.7", "unit": "%"}, {"measurement": "G0/G1 (%)", "setting": "[3]; Caco2, 5 μM, 48 hr", "value": "45.83 ± 3.3", "unit": "%"}, {"measurement": "G2/M (%)", "setting": "[3]; Caco2, 5 μM, 48 hr", "value": "8.7 ± 2.07", "unit": "%"}, {"measurement": "S (%)", "setting": "[3]; Caco2, 5 μM, 48 hr", "value": "11.67 ± 2", "unit": "%"}, {"measurement": "Sub G1 (%)", "setting": "[3]; Caco2, 5 μM, 48 hr", "value": "33.53 ± 6.73", "unit": "%"}, {"measurement": "G2/M phase after pre-treatment then 5-FU (in words)", "setting": "[3]; Caco2, 12 and 24 hr pretreatment of 1 or 2 μM, then 5-FU", "value": "decreased"}, {"measurement": "G0/G1 (%)", "setting": "[4]; HT-29, 0.5 μM, 24 hr", "value": "65.3 ± 5.66", "unit": "%"}, {"measurement": "G2/M (%)", "setting": "[4]; HT-29, 0.5 μM, 24 hr", "value": "11.65 ± 0.78", "unit": "%"}, {"measurement": "S (%)", "setting": "[4]; HT-29, 0.5 μM, 24 hr", "value": "5.9 ± 1.13", "unit": "%"}, {"measurement": "Sub G1 (%)", "setting": "[4]; HT-29, 0.5 μM, 24 hr", "value": "14.65 ± 4.03", "unit": "%"}, {"measurement": "G0/G1 (%)", "setting": "[4]; HT-29, 0.5 μM, 36 hr", "value": "48.28 ± 6.29", "unit": "%"}, {"measurement": "G2/M (%)", "setting": "[4]; HT-29, 0.5 μM, 36 hr", "value": "5.8 ± 0.84", "unit": "%"}, {"measurement": "S (%)", "setting": "[4]; HT-29, 0.5 μM, 36 hr", "value": "5.8 ± 0.68", "unit": "%"}, {"measurement": "Sub G1 (%)", "setting": "[4]; HT-29, 0.5 μM, 36 hr", "value": "37.88 ± 7.42", "unit": "%"}, {"measurement": "G0/G1 (%)", "setting": "[4]; HT-29, 2 μM, 24 hr", "value": "54.35 ± 5.02", "unit": "%"}, {"measurement": "G2/M (%)", "setting": "[4]; HT-29, 2 μM, 24 hr", "value": "12.35 ± 2.33", "unit": "%"}, {"measurement": "S (%)", "setting": "[4]; HT-29, 2 μM, 24 hr", "value": "9.85 ± 1.2", "unit": "%"}, {"measurement": "Sub G1 (%)", "setting": "[4]; HT-29, 2 μM, 24 hr", "value": "20.05 ± 5.87", "unit": "%"}, {"measurement": "G0/G1 (%)", "setting": "[4]; HT-29, 2 μM, 36 hr", "value": "29.15 ± 3.18", "unit": "%"}, {"measurement": "G2/M (%)", "setting": "[4]; HT-29, 2 μM, 36 hr", "value": "14.4 ± 0.71", "unit": "%"}, {"measurement": "S (%)", "setting": "[4]; HT-29, 2 μM, 36 hr", "value": "12.3 ± 1.13", "unit": "%"}, {"measurement": "Sub G1 (%)", "setting": "[4]; HT-29, 2 μM, 36 hr", "value": "40.25 ± 3.32", "unit": "%"}, {"measurement": "G0/G1 (%)", "setting": "[4]; HT-29, 5 μM, 24 hr", "value": "49.8 ± 7.07", "unit": "%"}, {"measurement": "G2/M (%)", "setting": "[4]; HT-29, 5 μM, 24 hr", "value": "13.25 ± 0.21", "unit": "%"}, {"measurement": "S (%)", "setting": "[4]; HT-29, 5 μM, 24 hr", "value": "12.9 ± 0", "unit": "%"}, {"measurement": "Sub G1 (%)", "setting": "[4]; HT-29, 5 μM, 24 hr", "value": "19.6 ± 7.95", "unit": "%"}, {"measurement": "G0/G1 (%)", "setting": "[4]; HT-29, 5 μM, 36 hr", "value": "27.85 ± 1.06", "unit": "%"}, {"measurement": "G2/M (%)", "setting": "[4]; HT-29, 5 μM, 36 hr", "value": "3.2 ± 0.85", "unit": "%"}, {"measurement": "S (%)", "setting": "[4]; HT-29, 5 μM, 36 hr", "value": "5.9 ± 0.42", "unit": "%"}, {"measurement": "Sub G1 (%)", "setting": "[4]; HT-29, 5 μM, 36 hr", "value": "61.85 ± 2.47", "unit": "%"}, {"measurement": "cell cycle phases after pre-treatment then 5-FU (in words)", "setting": "[4]; HT-29, pre-treatment, then 5-FU", "value": "increase of sub G1 phase and decrease of G2/M phase"}]}]}
